Measurements: article PMC7158045 (BMC Plant Biology, 2020)
Where a name gives a salt, the structure may show the parent alone.

Key:
Assay in all cases: biochemical
[1] = target: T1, ZmDRIK1-K217-S514 (Zea mays, UniProt C0P4K9); conditions: read-out: dTm B, sheet ZmDRIK1-K217-S514;; DSF, Boltzmann fit, 0.1% DMSO
T1 construct: kinase domain, K217-S514
T1 sequence (C0P4K9 1-514): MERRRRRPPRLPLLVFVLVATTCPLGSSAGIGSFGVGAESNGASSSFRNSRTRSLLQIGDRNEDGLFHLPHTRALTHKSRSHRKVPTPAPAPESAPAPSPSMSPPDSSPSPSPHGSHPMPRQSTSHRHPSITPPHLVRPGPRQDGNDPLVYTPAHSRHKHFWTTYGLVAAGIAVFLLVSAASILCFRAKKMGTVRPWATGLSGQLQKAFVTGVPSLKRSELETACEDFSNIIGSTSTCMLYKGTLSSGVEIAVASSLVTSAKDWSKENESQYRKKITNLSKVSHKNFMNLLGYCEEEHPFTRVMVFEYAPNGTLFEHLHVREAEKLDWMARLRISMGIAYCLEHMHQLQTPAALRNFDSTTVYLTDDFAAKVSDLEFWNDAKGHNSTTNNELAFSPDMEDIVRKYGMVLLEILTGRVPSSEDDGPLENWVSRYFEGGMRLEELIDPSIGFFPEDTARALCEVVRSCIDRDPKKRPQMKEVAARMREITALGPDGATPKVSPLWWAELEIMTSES

[2] = target: T2, ZmDRIK1-R187-P492 (Zea mays, UniProt C0P4K9); conditions: read-out: dTm B, DSF, Boltzmann fit, 0.1% DMSO
T2 construct: kinase domain, R187-P492
T2 sequence (C0P4K9 1-514): T1 sequence (C0P4K9 1-514)

[3] = target: T3, ZmDRIK1-K217-P492 (Zea mays, UniProt C0P4K9); conditions: read-out: dTm B, sheet ZmDRIK1-K217-P492;; DSF, Boltzmann fit, 0.1% DMSO
T3 construct: kinase domain, K217-P492
T3 sequence (C0P4K9 1-514): T1 sequence (C0P4K9 1-514)

[4] = target: T4, ZmDRIK1 (DROUGHT RESPONSIVE INACTIVE KINASE 1), kinase domain (Zea mays, UniProt C0P4K9); conditions: read-out: dTm B, sheet ZmDRIK1-R187-S514;; DSF, Boltzmann fit, 0.1% DMSO
T4 construct: gene ZEAMMB73_Zm00001d028770; ZmDRIK1-KD R187-S514 (kinase domain)
T4 sequence (C0P4K9 187-514): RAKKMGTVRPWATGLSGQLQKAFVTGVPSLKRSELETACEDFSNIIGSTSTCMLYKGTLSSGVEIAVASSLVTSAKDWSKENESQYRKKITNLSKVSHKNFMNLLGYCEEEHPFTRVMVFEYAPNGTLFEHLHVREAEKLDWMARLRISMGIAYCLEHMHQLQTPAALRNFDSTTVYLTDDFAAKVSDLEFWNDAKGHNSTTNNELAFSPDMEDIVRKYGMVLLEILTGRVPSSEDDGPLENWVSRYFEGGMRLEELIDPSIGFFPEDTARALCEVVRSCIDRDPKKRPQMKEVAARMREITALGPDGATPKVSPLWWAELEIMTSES

ΔTm at 10 µM [1] [°C]	ΔTm at 10 µM [2] [°C]	ΔTm at 10 µM [3] [°C]	ΔTm at 10 µM [4] [°C]	SMILES
-0.339	-0.444	-1.04	-0.757	CC(C)(C)NS(=O)(=O)c1cncc(-c2cc(F)c3nc(N)nn3c2)c1 [CZC24832]
-0.552	-0.423	-1.05	-0.702	CC(C)(C#N)c1ccc(N2C(=O)OCc3cnc4ccc(-c5cnc6ccccc6c5)cc4c32)cc1 [ETP-46464]
-0.251	-0.352	-1.1	-0.503	CC(C)NC[C@@H](C(=O)N1CCN(c2ncnc3c2[C@H](C)C[C@H]3O)CC1)c1ccc(Cl)cc1 [GDC-0068]
-0.392	-0.218	-0.749	-0.899	CCNC(=O)Nc1ccc(-c2nc3c(c(N4CCOC[C@@H]4C)n2)CCN(C2COC2)C3)cc1 [GDC-0349]
-0.397	-0.0449	-1.04	-0.639	OCCn1cc(-c2ccc3c(c2)CC/C3=N\O)c(-c2ccncc2)n1 [GDC-0879]
-0.203	-0.181	-0.665	-0.702	CS(=O)(=O)N1CCN(Cc2cc3nc(-c4cccc5[nH]ncc45)nc(N4CCOCC4)c3s2)CC1 [GDC-0941]
-0.602	-0.575	-0.848	-0.833	CNc1nc(Nc2cn(C(C)(C)C#N)nc2C)ncc1C(F)(F)F [GNE-0877]
-0.456	-0.506	-0.898	-0.927	CCNc1nc(Nc2cc(F)c(C(=O)N3CCOCC3)cc2OC)ncc1C(F)(F)F [GNE-7915]
-0.718	-0.334	-0.685	-0.953	CNc1nc(Nc2cnn([C@H]3CCN(C4COC4)C[C@@H]3F)c2Cl)ncc1C(F)(F)F [GNE-9605]
-4.34	-7.74	-9.47	-0.138	NC(=O)c1cccc(-c2cc(Nc3ccc(OC(F)(F)F)cc3)ncn2)c1 [GNF-2]
0.543	1.16	-0.507	-0.0553	O=C(NCCO)c1cccc(-c2cc(Nc3ccc(OC(F)(F)F)cc3)ncn2)c1 [GNF-5]
-0.15	-0.19	-0.796	-1.05	C[C@@H](Oc1cc(-n2cnc3ccc(CN4CCN(C)CC4)cc32)sc1C(N)=O)c1ccccc1C(F)(F)F [GSK461364]

The next lines start with the molecule.

SMILES	ΔTm at 10 µM [1] [°C]	ΔTm at 10 µM [2] [°C]	ΔTm at 10 µM [3] [°C]	ΔTm at 10 µM [4] [°C]
CN1CCCN(C(=O)c2cccc(-c3ccc(/C=C4/C(=O)Nc5ccc(Cl)cc54)o3)c2)CC1 [CX-6258 HCl]	-0.341	-0.49	-1.21	-1.14
Cc1nc(N)sc1-c1ccnc(Nc2ccc(N3CCOCC3)cc2)n1 [CYC116]	-0.183	0.313	-0.775	-1.14
N#CCNC(=O)c1ccc(-c2ccnc(Nc3ccc(N4CCOCC4)cc3)n2)cc1 [CYT387]	-0.388	-0.227	-0.574	-0.664
COc1cc2c(Oc3ccc4[nH]c(C)cc4c3F)ncnc2cc1OCCCN1CCCC1 [Cediranib (AZD2171)]	-0.229	-0.191	-1.09	-0.769
Cc1cc(O)c2c(c1)C(=O)c1cccc(O)c1C2=O [Chrysophanic Acid]	-0.229	-0.205	-1.17	-0.414
CC1(COc2ccc3c(c2)ncn3-c2ccc3cccc(N4CCC(N)CC4)c3n2)COC1 [Crenolanib (CP-868596)]	-0.0308	-0.209	-0.453	-0.526
CNC(=O)c1cc(Oc2ccc(NC(=O)Nc3cc(C(C)(C)C)nn3-c3ccc4ncccc4c3)c(F)c2)ccn1 [DCC-2036 (Rebastinib)]	-0.422	-0.261	-1.25	-1.41
COc1cc2ncnc(Nc3ccc(F)c(Cl)c3)c2cc1NC(=O)/C=C/CN1CCCCC1 [Dacomitinib (PF299804)]	-0.1	-0.258	-0.0919	-0.735
CO[C@@H](C(=O)N1Cc2[nH]nc(NC(=O)c3ccc(N4CCN(C)CC4)cc3)c2C1)c1ccccc1 [Danusertib (PHA-739358)]	-0.209	-0.184	-0.905	-0.644
Cc1nc(Nc2ncc(C(=O)Nc3c(C)cccc3Cl)s2)cc(N2CCN(CCO)CC2)n1 [Dasatinib]	-0.388	-0.493	-1.24	-0.74
CCC[C@H](NC(=O)/C(C#N)=C/c1cccc(Br)n1)c1ccccc1 [Degrasyn (WP1130)]	-3.28	-3.03	-5.21	-5.72
O=c1cc(CN2CCOCC2)occ1OCCCCCSc1ccnc2cc(C(F)(F)F)ccc12 [EHT 1864]	-0.387	-0.298	-0.4	-0.648
CCn1c2ccccc2c2cc(Nc3ccnc(NCCCN4CCOCC4)n3)ccc21 [EHop-016]	-0.29	-0.204	-1.16	-0.693
Cn1cc(C2=C(c3cn(C4CCN(Cc5ccccn5)CC4)c4ccccc34)C(=O)NC2=O)c2ccccc21 [Enzastaurin (LY317615)]	-0.275	-0.261	-1.33	-0.678
C#Cc1cccc(Nc2ncnc3cc(OCCOC)c(OCCOC)cc23)c1 [Erlotinib HCl (OSI-744)]	-0.264	-0.278	-1.09	-0.54
CO[C@H]1C[C@@H]2CC[C@@H](C)[C@@](O)(O2)C(=O)C(=O)N2CCCC[C@H]2C(=O)O[C@H]([C@H](C)C[C@@H]2CC[C@@H](OCCO)[C@H](OC)C2)CC(=O)[C@H](C)/C=C(\C)[C@@H](O)[C@@H](OC)C(=O)[C@H](C)C[C@H](C)/C=C/C=C/C=C/1C [Everolimus (RAD001)]	-0.327	-0.526	-1.22	-0.644
O=S(=O)(c1cccc2cnccc12)N1CCCNCC1 [Fasudil (HA-1077) HCl]	-0.253	-0.0771	-0.949	-0.908
O=C(Nc1nc2cccc(-c3ccc(CN4CCS(=O)(=O)CC4)cc3)n2n1)C1CC1 [Filgotinib (GLPG0634)]	-0.594	-0.607	-1.16	-0.878
CCCCCCCCc1ccc(CCC(N)(CO)CO)cc1 [Fingolimod (FTY720) HCl]	-0.608	-0.447	-1.47	-0.542
CN1CC[C@H](c2c(O)cc(O)c3c(=O)cc(-c4ccccc4Cl)oc23)[C@H](O)C1 [Flavopiridol HCl]	-0.391	-0.272	-1.16	-0.837
COc1cc(Nc2ncc(F)c(Nc3ccc4c(n3)N(COP(=O)(O)O)C(=O)C(C)(C)O4)n2)cc(OC)c1OC [Fostamatinib (R788)]	-0.314	-0.222	-0.792	-0.579
Cc1c(CN2CCN(C(=O)[C@H](C)O)CC2)sc2c(N3CCOCC3)nc(-c3cnc(N)nc3)nc12 [GDC-0980 (RG7422)]	-0.304	-0.177	-1.16	-0.737
CN(C)CCCn1cc(C2=C(c3c[nH]c4ccccc34)C(=O)NC2=O)c2ccccc21 [GF109203X]	-0.324	-0.337	-1.16	-0.748
CC1=C(C(=O)Nc2cc3cn[nH]c3cc2F)C(c2ccc(C(F)(F)F)cc2)CC(=O)N1 (stereo not drawn) [GSK429286A]	-0.373	-0.447	-1.02	-0.758
